Source: PMC6131539, “Behavioral Effects of a Potential Novel TAAR1 Antagonist” (Frontiers in Pharmacology, 2018)

Tests used:
[1] = system: TAAR1-KO mice; experiment: Amphetamine-induced locomotor activity, co-injection, TAAR1-KO mice; assay type: in vivo; conditions: 15 mg/kg co-injected with amphetamine 2 mg/kg, p = 0.004
Protocol: (§1) The Taarl^-/- (TAAR1-KO) mice were obtained from Lundbeck ([Wolinsky et al., 2007]). All wild type (WT) and TAAR1-KO mice used for experiments were generated from TAAR1-KO heterozygous mice in a C57BL/6J x 129S1/Sv mixed background.
(§2) Experimentally naïve mice, of at least 12 weeks of age, were used for all behavioral experiments. The mice were randomly assigned to treatment or control groups, balanced by sex and weight. Locomotor activity was assessed using the automated locomotor analysis monitors (Omnitech Electronics, Columbus, OH, United States). The apparatus included four open field monitors. Each Open Field monitor consisted of sets of 16 light beams arrayed in the horizontal X and Y axes. The hardware detected beams broken by the animal, which allowed the software to determine the location of the mouse in the cage. Total distance covered by mice was used to characterize locomotor activity of the animals. The monitors were divided into four compartments (20 cm × 20 cm). Animals were tested individually for defined periods with 5-min intervals. The mice were first weighed and then placed into the apparatus, allowing for 30 min habituation. Following the habituation, the mice were removed from the al apparatus and injected with drugs (see below for administration) or vehicle and returned immediately to the locomotor chamber.

[2] = system: WT littermates (C57BL/6J × 129S2/Sv); experiment: Amphetamine-induced locomotor activity, co-injection, WT littermates; assay type: in vivo, mice; conditions: 5 mg/kg co-injected with amphetamine 2 mg/kg, p = 0.049
Protocol: as §1, §2

[3] = target: T1, D2 (Homo sapiens, UniProt P14416); experiment: PDSP binding, primary screen
T1 construct: purchased NIMH Psychoactive Drug Screening Program (PDSP), University of North Carolina-Chapel Hill
Protocol: (§3) This was achieved through the identification of potential pharmacological targets of compound 22 using the Psychoactive Drug Screening Program (PDSP) at University of North Carolina-Chapel-Hill. PDSP provides a platform for screening novel psychoactive compounds on human proteins expressed in the central nervous system in order to identify their biological target(s) ([Besnard et al., 2012]). Binding studies were done on 47 targets at a single dose of compound 22 (10 μM; Supplementary Table S1). This primary screen yielded a total of 5 hits for compound 22 (Table 2). These hits were the serotonin, dopamine, and norepinephrine transporters, as well as the sigma 1 and sigma 2 receptors.
(§4) Supplemental Table 1. Compound 22 binding studies from PDSP: primary screen for compound 22 and subsequent hits (50% cut-off, hits highlighted in red). The primary screen was performed by PDSP as described previously (Besnard et al., 2012).

[4] = target: T2, 5-HT1D (Homo sapiens, UniProt P28221); experiment: PDSP binding, primary screen
T2 construct: purchased NIMH Psychoactive Drug Screening Program (PDSP), University of North Carolina-Chapel Hill
T2 sequence (P28221 whole entry): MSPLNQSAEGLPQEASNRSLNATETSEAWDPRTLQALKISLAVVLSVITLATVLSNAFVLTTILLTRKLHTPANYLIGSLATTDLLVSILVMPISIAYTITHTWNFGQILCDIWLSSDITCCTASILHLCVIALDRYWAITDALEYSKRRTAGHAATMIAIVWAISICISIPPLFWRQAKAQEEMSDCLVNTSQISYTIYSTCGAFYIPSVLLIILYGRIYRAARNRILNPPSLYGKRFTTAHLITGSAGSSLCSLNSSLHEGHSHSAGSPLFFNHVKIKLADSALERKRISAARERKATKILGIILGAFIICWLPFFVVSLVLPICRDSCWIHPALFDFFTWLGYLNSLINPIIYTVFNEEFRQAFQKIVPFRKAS
Protocol: as §3, §4

[5] = target: T3, D3 (Homo sapiens, UniProt P35462); experiment: PDSP binding, primary screen
T3 construct: purchased NIMH Psychoactive Drug Screening Program (PDSP), University of North Carolina-Chapel Hill
Protocol: as §3, §4

[6] = target: T4, M5 (Homo sapiens, UniProt P08912); experiment: PDSP binding, primary screen
T4 construct: purchased NIMH Psychoactive Drug Screening Program (PDSP), University of North Carolina-Chapel Hill
Protocol: as §3, §4

[7] = target: T5, DOR (Homo sapiens, UniProt P41143); experiment: PDSP binding, primary screen
T5 construct: purchased NIMH Psychoactive Drug Screening Program (PDSP), University of North Carolina-Chapel Hill
Protocol: as §3, §4

[8] = target: T6, H3 (Homo sapiens, UniProt Q9Y5N1); experiment: PDSP binding, primary screen
T6 construct: purchased NIMH Psychoactive Drug Screening Program (PDSP), University of North Carolina-Chapel Hill
T6 sequence (Q9Y5N1 whole entry): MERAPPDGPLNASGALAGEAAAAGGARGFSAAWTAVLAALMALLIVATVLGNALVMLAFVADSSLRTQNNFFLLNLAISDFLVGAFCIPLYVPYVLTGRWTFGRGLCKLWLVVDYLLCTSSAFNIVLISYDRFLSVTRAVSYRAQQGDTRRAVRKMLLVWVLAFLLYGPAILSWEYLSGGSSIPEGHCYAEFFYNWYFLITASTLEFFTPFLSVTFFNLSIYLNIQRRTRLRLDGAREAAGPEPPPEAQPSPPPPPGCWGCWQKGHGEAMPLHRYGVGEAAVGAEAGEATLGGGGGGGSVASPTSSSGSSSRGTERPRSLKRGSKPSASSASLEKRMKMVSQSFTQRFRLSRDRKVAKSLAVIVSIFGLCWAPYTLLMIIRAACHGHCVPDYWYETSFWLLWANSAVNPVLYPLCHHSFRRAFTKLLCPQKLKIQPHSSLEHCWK
Protocol: as §3, §4

[9] = target: T7, NET (Homo sapiens, UniProt P23975); experiment: PDSP binding, primary screen
T7 construct: purchased NIMH Psychoactive Drug Screening Program (PDSP), University of North Carolina-Chapel Hill
Protocol: as §3, §4

[10] = target: T8, DAT (Homo sapiens, UniProt Q01959); experiment: PDSP binding, primary screen
T8 construct: purchased NIMH Psychoactive Drug Screening Program (PDSP), University of North Carolina-Chapel Hill
Protocol: as §3, §4

[11] = target: T9, H4 (Homo sapiens, UniProt Q9H3N8); experiment: PDSP binding, primary screen
T9 construct: purchased NIMH Psychoactive Drug Screening Program (PDSP), University of North Carolina-Chapel Hill
T9 sequence (Q9H3N8 whole entry): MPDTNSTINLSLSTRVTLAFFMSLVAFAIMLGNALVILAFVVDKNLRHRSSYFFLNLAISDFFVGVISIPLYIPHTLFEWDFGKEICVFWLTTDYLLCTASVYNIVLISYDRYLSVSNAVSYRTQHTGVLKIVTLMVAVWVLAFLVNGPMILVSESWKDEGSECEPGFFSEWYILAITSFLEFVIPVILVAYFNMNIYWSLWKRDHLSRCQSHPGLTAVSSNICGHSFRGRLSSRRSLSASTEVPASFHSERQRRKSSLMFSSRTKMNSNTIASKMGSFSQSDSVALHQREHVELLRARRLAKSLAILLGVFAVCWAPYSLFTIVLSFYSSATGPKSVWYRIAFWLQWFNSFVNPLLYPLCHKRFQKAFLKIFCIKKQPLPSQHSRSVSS
Protocol: as §3, §4

[12] = target: T10, MOR (Homo sapiens, UniProt P35372); experiment: PDSP binding, primary screen
T10 construct: purchased NIMH Psychoactive Drug Screening Program (PDSP), University of North Carolina-Chapel Hill
Protocol: as §3, §4

[13] = target: T11, M1 (Homo sapiens, UniProt P11229); experiment: PDSP binding, primary screen
T11 construct: purchased NIMH Psychoactive Drug Screening Program (PDSP), University of North Carolina-Chapel Hill
T11 sequence (P11229 whole entry): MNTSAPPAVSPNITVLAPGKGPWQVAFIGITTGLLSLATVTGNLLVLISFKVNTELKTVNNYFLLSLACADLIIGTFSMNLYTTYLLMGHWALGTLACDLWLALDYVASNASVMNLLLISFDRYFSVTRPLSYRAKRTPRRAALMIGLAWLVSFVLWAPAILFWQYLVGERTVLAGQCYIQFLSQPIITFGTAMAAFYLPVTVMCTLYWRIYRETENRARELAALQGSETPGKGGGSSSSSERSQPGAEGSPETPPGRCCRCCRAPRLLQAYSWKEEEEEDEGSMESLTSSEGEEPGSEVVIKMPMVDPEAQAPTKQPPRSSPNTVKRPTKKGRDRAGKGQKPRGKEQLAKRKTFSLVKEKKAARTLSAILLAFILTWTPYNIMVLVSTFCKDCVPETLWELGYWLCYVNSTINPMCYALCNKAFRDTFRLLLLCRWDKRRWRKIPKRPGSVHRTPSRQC
Protocol: as §3, §4

[14] = target: T12, 5-HT2B (Homo sapiens, UniProt P41595); experiment: PDSP binding, primary screen
T12 construct: purchased NIMH Psychoactive Drug Screening Program (PDSP), University of North Carolina-Chapel Hill
T12 sequence (P41595 whole entry): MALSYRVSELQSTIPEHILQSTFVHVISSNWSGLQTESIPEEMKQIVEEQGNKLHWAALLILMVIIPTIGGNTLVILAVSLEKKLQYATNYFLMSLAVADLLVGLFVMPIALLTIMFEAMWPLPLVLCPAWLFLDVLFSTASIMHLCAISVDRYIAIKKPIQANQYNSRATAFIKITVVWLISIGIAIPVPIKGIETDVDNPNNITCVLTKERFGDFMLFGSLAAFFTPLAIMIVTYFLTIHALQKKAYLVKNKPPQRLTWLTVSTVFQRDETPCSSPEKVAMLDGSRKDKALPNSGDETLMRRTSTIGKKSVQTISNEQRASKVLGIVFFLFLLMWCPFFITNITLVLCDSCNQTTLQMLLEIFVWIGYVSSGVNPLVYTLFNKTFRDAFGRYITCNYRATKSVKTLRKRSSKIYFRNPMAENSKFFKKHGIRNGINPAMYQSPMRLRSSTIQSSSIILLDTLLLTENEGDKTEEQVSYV
Protocol: as §3, §4

[15] = target: T13, 5-HT3 (Homo sapiens, UniProt P46098); experiment: PDSP binding, primary screen
T13 construct: purchased NIMH Psychoactive Drug Screening Program (PDSP), University of North Carolina-Chapel Hill
Protocol: as §3, §4

[16] = target: T14, D5 (Homo sapiens, UniProt P21918); experiment: PDSP binding, primary screen
T14 construct: purchased NIMH Psychoactive Drug Screening Program (PDSP), University of North Carolina-Chapel Hill
T14 sequence (P21918 whole entry): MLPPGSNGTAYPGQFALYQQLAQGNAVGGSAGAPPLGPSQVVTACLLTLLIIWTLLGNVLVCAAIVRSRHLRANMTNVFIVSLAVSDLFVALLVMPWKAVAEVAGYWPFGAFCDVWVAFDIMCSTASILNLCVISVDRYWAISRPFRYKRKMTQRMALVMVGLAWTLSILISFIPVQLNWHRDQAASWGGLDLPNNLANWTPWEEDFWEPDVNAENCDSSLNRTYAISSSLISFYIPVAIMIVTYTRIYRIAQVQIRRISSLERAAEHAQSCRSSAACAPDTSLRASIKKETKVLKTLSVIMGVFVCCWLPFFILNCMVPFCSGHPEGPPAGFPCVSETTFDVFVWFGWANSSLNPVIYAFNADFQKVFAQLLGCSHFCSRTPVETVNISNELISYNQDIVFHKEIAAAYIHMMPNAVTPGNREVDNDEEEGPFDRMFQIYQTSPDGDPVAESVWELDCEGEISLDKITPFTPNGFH
Protocol: as §3, §4

[17] = target: T15, Beta3 (Homo sapiens, UniProt P13945); experiment: PDSP binding, primary screen
T15 construct: purchased NIMH Psychoactive Drug Screening Program (PDSP), University of North Carolina-Chapel Hill
Protocol: as §3, §4

[18] = target: T16, M4 (Homo sapiens, UniProt P08173); experiment: PDSP binding, primary screen
T16 construct: purchased NIMH Psychoactive Drug Screening Program (PDSP), University of North Carolina-Chapel Hill
Protocol: as §3, §4

[19] = target: T17, Sigma 1 (Homo sapiens, UniProt Q99720); experiment: PDSP binding, primary screen
T17 construct: purchased NIMH Psychoactive Drug Screening Program (PDSP), University of North Carolina-Chapel Hill
T17 sequence (Q99720 whole entry): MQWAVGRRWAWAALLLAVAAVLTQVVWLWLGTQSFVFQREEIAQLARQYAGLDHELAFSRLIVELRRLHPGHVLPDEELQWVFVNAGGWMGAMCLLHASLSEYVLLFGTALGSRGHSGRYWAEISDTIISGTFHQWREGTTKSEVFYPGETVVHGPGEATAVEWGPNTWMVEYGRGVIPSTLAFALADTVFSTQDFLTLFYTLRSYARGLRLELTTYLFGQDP
Protocol: as §3, §4

[20] = target: T18, 5-HT1B (Homo sapiens, UniProt P28222); experiment: PDSP binding, primary screen
T18 construct: purchased NIMH Psychoactive Drug Screening Program (PDSP), University of North Carolina-Chapel Hill
Protocol: as §3, §4

[21] = target: T19, Beta1 (Homo sapiens, UniProt P08588); experiment: PDSP binding, primary screen
T19 construct: purchased NIMH Psychoactive Drug Screening Program (PDSP), University of North Carolina-Chapel Hill
T19 sequence (P08588 whole entry): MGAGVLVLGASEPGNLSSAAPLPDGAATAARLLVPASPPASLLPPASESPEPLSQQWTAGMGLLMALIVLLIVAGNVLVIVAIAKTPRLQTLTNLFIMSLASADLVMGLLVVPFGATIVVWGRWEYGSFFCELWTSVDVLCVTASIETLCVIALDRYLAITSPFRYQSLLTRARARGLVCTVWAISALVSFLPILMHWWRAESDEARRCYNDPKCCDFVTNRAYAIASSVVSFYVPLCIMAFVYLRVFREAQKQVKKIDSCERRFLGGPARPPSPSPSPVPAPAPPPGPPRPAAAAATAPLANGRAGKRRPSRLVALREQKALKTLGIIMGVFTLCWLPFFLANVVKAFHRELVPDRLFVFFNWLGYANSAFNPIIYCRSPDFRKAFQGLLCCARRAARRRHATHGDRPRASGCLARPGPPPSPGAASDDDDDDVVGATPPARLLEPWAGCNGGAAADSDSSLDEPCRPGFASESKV
Protocol: as §3, §4

[22] = target: T20, Alpha1A (Homo sapiens, UniProt P35348); experiment: PDSP binding, primary screen
T20 construct: purchased NIMH Psychoactive Drug Screening Program (PDSP), University of North Carolina-Chapel Hill
T20 sequence (P35348 whole entry): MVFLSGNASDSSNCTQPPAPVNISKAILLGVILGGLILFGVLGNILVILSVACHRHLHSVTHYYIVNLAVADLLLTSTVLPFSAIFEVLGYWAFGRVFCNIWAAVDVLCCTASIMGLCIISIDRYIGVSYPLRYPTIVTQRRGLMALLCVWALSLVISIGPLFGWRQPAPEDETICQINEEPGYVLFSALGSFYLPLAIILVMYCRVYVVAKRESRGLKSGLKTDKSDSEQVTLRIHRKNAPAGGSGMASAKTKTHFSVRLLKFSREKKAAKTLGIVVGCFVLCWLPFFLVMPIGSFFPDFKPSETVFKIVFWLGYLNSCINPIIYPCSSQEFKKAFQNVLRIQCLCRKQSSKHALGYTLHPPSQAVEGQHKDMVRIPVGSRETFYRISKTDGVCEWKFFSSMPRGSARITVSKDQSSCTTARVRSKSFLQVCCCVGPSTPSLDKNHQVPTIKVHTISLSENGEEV
Protocol: as §3, §4

[23] = target: T21, 5-HT7 (Homo sapiens, UniProt P34969); experiment: PDSP binding, primary screen
T21 construct: purchased NIMH Psychoactive Drug Screening Program (PDSP), University of North Carolina-Chapel Hill
T21 sequence (P34969 whole entry): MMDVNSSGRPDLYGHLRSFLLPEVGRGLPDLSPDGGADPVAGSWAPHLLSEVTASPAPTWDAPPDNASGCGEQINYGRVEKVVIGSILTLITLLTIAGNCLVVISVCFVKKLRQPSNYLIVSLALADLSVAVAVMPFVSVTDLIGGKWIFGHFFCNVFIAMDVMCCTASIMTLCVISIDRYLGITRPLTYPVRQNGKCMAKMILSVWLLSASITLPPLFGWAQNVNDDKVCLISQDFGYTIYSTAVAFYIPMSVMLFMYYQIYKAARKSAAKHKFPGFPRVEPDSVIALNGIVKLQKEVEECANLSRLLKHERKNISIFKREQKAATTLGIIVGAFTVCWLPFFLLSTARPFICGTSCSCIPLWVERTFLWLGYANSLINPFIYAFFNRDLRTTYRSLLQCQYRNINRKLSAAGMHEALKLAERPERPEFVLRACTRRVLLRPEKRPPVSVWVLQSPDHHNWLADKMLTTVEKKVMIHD
Protocol: as §3, §4

[24] = target: T22, M2 (Homo sapiens, UniProt P08172); experiment: PDSP binding, primary screen
T22 construct: purchased NIMH Psychoactive Drug Screening Program (PDSP), University of North Carolina-Chapel Hill
Protocol: as §3, §4

[25] = target: T23, 5-HT2C (Homo sapiens, UniProt P28335); experiment: PDSP binding, primary screen
T23 construct: purchased NIMH Psychoactive Drug Screening Program (PDSP), University of North Carolina-Chapel Hill
Protocol: as §3, §4

[26] = target: T24, 5-HT2A (Homo sapiens, UniProt P28223); experiment: PDSP binding, primary screen
T24 construct: purchased NIMH Psychoactive Drug Screening Program (PDSP), University of North Carolina-Chapel Hill
T24 sequence (P28223 whole entry): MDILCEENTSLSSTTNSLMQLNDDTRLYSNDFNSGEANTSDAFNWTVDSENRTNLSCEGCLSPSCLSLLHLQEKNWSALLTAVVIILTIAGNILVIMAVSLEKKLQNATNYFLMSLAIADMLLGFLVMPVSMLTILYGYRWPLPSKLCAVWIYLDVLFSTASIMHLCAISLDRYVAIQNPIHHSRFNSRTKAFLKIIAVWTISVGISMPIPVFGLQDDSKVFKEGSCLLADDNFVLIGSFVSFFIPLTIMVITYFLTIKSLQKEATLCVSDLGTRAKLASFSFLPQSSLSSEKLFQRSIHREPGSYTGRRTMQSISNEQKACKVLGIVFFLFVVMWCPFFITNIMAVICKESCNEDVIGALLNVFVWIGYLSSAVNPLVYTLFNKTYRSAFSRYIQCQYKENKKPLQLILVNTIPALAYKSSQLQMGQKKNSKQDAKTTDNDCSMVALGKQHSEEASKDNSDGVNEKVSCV
Protocol: as §3, §4

[27] = target: T25, KOR (Homo sapiens, UniProt P41145); experiment: PDSP binding, primary screen
T25 construct: purchased NIMH Psychoactive Drug Screening Program (PDSP), University of North Carolina-Chapel Hill
Protocol: as §3, §4

[28] = target: T26, 5-HT1A (Homo sapiens, UniProt P08908); experiment: PDSP binding, primary screen
T26 construct: purchased NIMH Psychoactive Drug Screening Program (PDSP), University of North Carolina-Chapel Hill
Protocol: as §3, §4

[29] = target: T27, SERT (Homo sapiens, UniProt P31645); experiment: PDSP binding, primary screen
T27 construct: purchased NIMH Psychoactive Drug Screening Program (PDSP), University of North Carolina-Chapel Hill
Protocol: as §3, §4

[30] = target: T28, Alpha2C (Homo sapiens, UniProt P18825); experiment: PDSP binding, primary screen
T28 construct: purchased NIMH Psychoactive Drug Screening Program (PDSP), University of North Carolina-Chapel Hill
Protocol: as §3, §4

[31] = target: T29, H1 (Homo sapiens, UniProt P35367); experiment: PDSP binding, primary screen
T29 construct: purchased NIMH Psychoactive Drug Screening Program (PDSP), University of North Carolina-Chapel Hill
Protocol: as §3, §4

[32] = target: T30, Alpha2B (Homo sapiens, UniProt P18089); experiment: PDSP binding, primary screen
T30 construct: purchased NIMH Psychoactive Drug Screening Program (PDSP), University of North Carolina-Chapel Hill
Protocol: as §3, §4

[33] = target: T31, 5-ht5a (Homo sapiens, UniProt P47898); experiment: PDSP binding, primary screen
T31 construct: purchased NIMH Psychoactive Drug Screening Program (PDSP), University of North Carolina-Chapel Hill
Protocol: as §3, §4

Question: With `Clc1ccc(CNCc2ccc(Cn3cncn3)cc2)c(Cl)c1` [compound 22] as the compound, how does the “potentiation of locomotor stimulating effects of amphetamine” value [1] read?
Answer: 84%

Question: What about the “potentiation of amphetamine locomotor response” value [2] of the same compound?
Answer: 44%

Question: And the inhibition at 10 µM [3]?
Answer: 36.7%

Question: What about the inhibition at 10 µM [4] of the same compound?
Answer: 9.7%

Question: What about the inhibition at 10 µM [5] of the same compound?
Answer: 9.4%

Question: And the inhibition at 10 µM [6]?
Answer: 1.4%

Question: And the inhibition at 10 µM [7]?
Answer: 6.2%

Question: What about the inhibition at 10 µM [8] of the same compound?
Answer: 17.8%

Question: What about the inhibition at 10 µM [9] of the same compound?
Answer: 93.4%

Question: And the inhibition at 10 µM [10]?
Answer: 60.5%

Question: What about the inhibition at 10 µM [11] of the same compound?
Answer: -9.8%

Question: What about the inhibition at 10 µM [12] of the same compound?
Answer: -3.7%

Question: And the inhibition at 10 µM [13]?
Answer: 18.3%

Question: And the inhibition at 10 µM [14]?
Answer: 6.7%

Question: And the inhibition at 10 µM [15]?
Answer: 6%

Question: And the inhibition at 10 µM [16]?
Answer: -6.8%

Question: What about the inhibition at 10 µM [17] of the same compound?
Answer: -9.1%

Question: What about the inhibition at 10 µM [18] of the same compound?
Answer: 15.9%

Question: And the inhibition at 10 µM [19]?
Answer: 93.2%

Question: What about the inhibition at 10 µM [20] of the same compound?
Answer: -13.5%

Question: And the inhibition at 10 µM [21]?
Answer: -3.5%

Question: And the inhibition at 10 µM [22]?
Answer: -13.9%

Question: And the inhibition at 10 µM [23]?
Answer: 20.2%

Question: And the inhibition at 10 µM [24]?
Answer: 7.1%

Question: What about the inhibition at 10 µM [25] of the same compound?
Answer: 18.5%

Question: What about the inhibition at 10 µM [26] of the same compound?
Answer: 2.1%

Question: What about the inhibition at 10 µM [27] of the same compound?
Answer: -10.2%

Question: And the inhibition at 10 µM [28]?
Answer: 9.3%

Question: And the inhibition at 10 µM [29]?
Answer: 57.3%

Question: And the inhibition at 10 µM [30]?
Answer: -4.3%

Question: And the inhibition at 10 µM [31]?
Answer: 6.3%

Question: And the inhibition at 10 µM [32]?
Answer: 22.6%

Question: And the inhibition at 10 µM [33]?
Answer: 15.3%
